Test results as given in patent publication US8592629B2, “Sulfonamide derivatives as Nav 1.7 inhibitors” (Pfizer Limited, priority 2010, dated 2013).

target: T1, Nav1.7 (or SCN9A) channel (Homo sapiens, UniProt Q15858); experiment: Nav1.7 (hSCN9A) block in HEK cells, PatchXpress 7000 automated electrophysiology, estimated IC50 (EIC50); assay type: cell-based; settings: PatchXpress assay; HEK cells stably transfected with hSCN9A, voltage-clamped at V1/2 of inactivation
T1 construct: expressed in transfected cells
T1 sequence (Q15858 whole entry): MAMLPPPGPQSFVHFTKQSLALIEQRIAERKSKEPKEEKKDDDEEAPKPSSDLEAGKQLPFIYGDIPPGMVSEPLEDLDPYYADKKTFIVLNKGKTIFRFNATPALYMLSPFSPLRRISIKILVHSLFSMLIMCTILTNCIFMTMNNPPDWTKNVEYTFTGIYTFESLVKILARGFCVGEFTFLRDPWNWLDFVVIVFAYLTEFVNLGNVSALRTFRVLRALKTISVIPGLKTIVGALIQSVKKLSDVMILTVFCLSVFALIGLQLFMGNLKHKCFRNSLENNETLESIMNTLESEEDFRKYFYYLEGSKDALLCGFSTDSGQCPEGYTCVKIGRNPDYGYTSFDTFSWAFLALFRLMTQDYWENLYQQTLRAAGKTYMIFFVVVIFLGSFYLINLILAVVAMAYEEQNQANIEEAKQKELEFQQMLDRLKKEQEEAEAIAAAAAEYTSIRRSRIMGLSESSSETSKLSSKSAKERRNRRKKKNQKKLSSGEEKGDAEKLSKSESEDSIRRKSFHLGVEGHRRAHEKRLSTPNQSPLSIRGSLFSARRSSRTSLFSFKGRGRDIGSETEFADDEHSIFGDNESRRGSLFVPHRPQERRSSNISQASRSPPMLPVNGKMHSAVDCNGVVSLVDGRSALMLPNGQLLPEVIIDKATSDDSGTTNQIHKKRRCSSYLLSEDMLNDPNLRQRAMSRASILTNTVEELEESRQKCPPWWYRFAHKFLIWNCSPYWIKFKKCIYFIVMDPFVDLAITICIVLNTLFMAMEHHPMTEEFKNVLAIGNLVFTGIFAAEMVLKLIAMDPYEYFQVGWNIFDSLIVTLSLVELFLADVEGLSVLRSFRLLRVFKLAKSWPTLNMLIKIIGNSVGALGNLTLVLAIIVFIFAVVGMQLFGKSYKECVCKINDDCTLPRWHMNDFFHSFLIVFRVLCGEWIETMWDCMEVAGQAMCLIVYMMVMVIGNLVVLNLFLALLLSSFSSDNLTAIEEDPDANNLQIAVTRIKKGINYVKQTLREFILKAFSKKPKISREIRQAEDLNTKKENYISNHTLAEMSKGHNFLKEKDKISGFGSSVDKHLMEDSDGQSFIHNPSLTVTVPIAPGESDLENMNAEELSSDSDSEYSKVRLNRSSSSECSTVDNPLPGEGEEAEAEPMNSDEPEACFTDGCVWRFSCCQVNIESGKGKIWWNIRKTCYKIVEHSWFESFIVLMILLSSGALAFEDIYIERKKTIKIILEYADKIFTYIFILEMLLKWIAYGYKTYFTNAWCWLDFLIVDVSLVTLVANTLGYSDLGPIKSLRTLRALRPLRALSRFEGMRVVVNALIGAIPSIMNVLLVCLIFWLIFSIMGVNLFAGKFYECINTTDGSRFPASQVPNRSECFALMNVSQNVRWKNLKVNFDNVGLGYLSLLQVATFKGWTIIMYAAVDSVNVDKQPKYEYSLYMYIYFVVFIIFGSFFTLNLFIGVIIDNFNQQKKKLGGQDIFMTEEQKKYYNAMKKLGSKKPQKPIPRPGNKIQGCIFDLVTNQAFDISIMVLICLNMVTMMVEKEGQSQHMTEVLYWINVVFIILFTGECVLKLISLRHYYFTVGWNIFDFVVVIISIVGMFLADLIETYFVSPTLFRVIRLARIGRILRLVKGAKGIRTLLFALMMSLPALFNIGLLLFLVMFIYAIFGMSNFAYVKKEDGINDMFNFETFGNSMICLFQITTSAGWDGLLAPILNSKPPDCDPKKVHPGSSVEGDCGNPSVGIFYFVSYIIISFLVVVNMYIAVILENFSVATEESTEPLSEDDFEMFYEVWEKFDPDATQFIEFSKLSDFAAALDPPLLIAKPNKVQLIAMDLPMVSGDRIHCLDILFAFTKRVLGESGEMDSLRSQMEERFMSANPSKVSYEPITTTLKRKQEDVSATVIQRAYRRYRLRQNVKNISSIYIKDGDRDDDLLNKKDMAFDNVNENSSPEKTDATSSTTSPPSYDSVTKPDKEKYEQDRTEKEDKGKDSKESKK
Outline: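 Stable hSCN9A HEK cells voltage-clamped at empirically determined inactivation V1/2 (8 s prepulse), current activated by 20 msec step to 0 mV; % inhibition from current before vs after compound. EIC50 derived from single-point data as concentration × (100−%inhibition)/%inhibition, excluding <20% and >80% inhibition; PatchXpress unless stated.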

| SMILES | IC50 [nM] |
| --- | --- |
| CS(=O)(=O)NC(=O)c1cc(Cl)c(Oc2cnc(-c3ccccc3)c(Cl)c2)cc1F [Example 108, 5-chloro-4-[(5-chloro-6-phenylpyridin-3-yl)oxy]-2-fluoro-N-(methylsulfonyl)benzamide] | 240 |
| CCN1CCN(c2ncc(Oc3cc(F)c(C(=O)NS(C)(=O)=O)cc3F)cc2Cl)CC1 [Example 118, 4-{[5-chloro-6-(4-ethylpiperazin-1-yl)pyridin-3-yl]oxy}-2,5-difluoro-N-(methylsulfonyl)benzamide] | > 1000 |
| CS(=O)(=O)NC(=O)c1cc(Cl)c(Oc2cnc(Oc3ccccc3)c(Cl)c2)cc1F [Example 100, 5-chloro-4-[(5-chloro-6-phenoxypyridin-3-yl)oxy]-2-fluoro-N-(methylsulfonyl)benzamide] | 72 |
| CS(=O)(=O)NC(=O)c1cc(F)c(Oc2cnc(C(F)(F)F)nc2)cc1F [Example 26, 2,5-difluoro-N-(methylsulfonyl)-4-{[2-(trifluoromethyl)pyrimidin-5-yl]oxy}benzamide] | > 10000 |
| CC(C)Oc1ncc(Oc2cc(F)c(C(=O)NS(C)(=O)=O)c(F)c2F)cc1Cl [Example 29, 4-[(5-chloro-6-isopropoxypyridin-3-yl)oxy]-2,3,6-trifluoro-N-(methylsulfonyl)benzamide] | 2300 |
| CC(C)(F)COc1ncc(Oc2cc(F)c(C(=O)NS(C)(=O)=O)cc2F)cc1Cl [Example 63, 4-{[5-chloro-6-(2-fluoro-2-methylpropoxy)pyridin-3-yl]oxy}-2,5-difluoro-N-(methylsulfonyl)benzamide] | 160 |
| CC(C)Oc1ncc(Oc2c(F)cc(C(=O)NS(C)(=O)=O)cc2F)cc1Cl [Example 32, 4-[(5-chloro-6-isopropoxypyridin-3-yl)oxy]-3,5-difluoro-N-(methylsulfonyl)benzamide] | 340 |
| CS(=O)(=O)NC(=O)c1cc(Cl)c(Oc2cnc(OC3CCOCC3)c(Cl)c2)cc1F [Example 37, 5-chloro-4-{[5-chloro-6-(tetrahydro-2H-pyran-4-yloxy)pyridin-3-yl]oxy}-2-fluoro-N-(methylsulfonyl)benzamide] | 140 |
| CS(=O)(=O)NC(=O)c1cc(Cl)c(Oc2cnc(C3CC3)c(C(F)(F)F)c2)cc1F [Example 107, 5-chloro-4-(6-cyclopropyl-5-(trifluoromethyl)pyridin-3-yloxy)-2-fluoro-N-(methylsulfonyl)benzamide] | 49 |
| CC(F)(F)c1ncc(Oc2cc(F)c(C(=O)NS(C)(=O)=O)cc2Cl)cc1Cl [Example 44, 5-chloro-4-{[5-chloro-6-(1,1-difluoroethyl)pyridin-3-yl]oxy}-2-fluoro-N-(methylsulfonyl)benzamide] | 560 |
| CS(=O)(=O)NC(=O)c1cc(F)c(Oc2cnc(OCC3CC(F)(F)C3)c(Cl)c2)cc1F [Example 2, 4-({5-Chloro-6-[(3,3-difluorocyclobutyl)methoxy]pyridin-3-yl}oxy)-2,5-difluoro-N-(methylsulfonyl)benzamide] | 91 |
| CC(C)Oc1ncc(Oc2cc(F)c(C(=O)NS(C)(=O)=O)cc2Cl)cn1 [Example 61, 5-chloro-2-fluoro-4-[(2-isopropoxypyrimidin-5-yl)oxy]-N-(methylsulfonyl)benzamide] | 5500 |
| CCC(COC)Nc1ncc(Oc2cc(F)c(C(=O)NS(C)(=O)=O)cc2F)cc1Cl (stereo not shown) [Example 129, 4-[(5-chloro-6-{[1-(methoxymethyl)propyl]amino}pyridin-3-yl)oxy]-2,5-difluoro-N-(methylsulfonyl)benzamide] | 540 |
| COc1ncc(Oc2ccc(C(=O)NS(C)(=O)=O)cc2Cl)cc1Cl [Example 83, 3-chloro-4-[(5-chloro-6-methoxypyridin-3-yl)oxy]-N-(methylsulfonyl)benzamide] | > 10000 |
| CS(=O)(=O)NC(=O)c1cc(Cl)c(Oc2cnc(C3CC3)c(Cl)c2)cc1F [Example 21, 5-chloro-4-[(5-chloro-6-cyclopropylpyridin-3-yl)oxy]-2-fluoro-N-(methanesulfonyl)benzamide] | 30 |
| CS(=O)(=O)NC(=O)c1cc(F)c(Oc2cnc(NC3CCCC3)c(Cl)c2)cc1F [Example 138, 4-{[5-chloro-6-(cyclopentylamino)pyridin-3-yl]oxy}-2,5-difluoro-N-(methylsulfonyl)benzamide] | 85 |
| CS(=O)(=O)NC(=O)c1cc(F)c(Oc2cnc(NC3CCCOC3)c(Cl)c2)cc1F (stereo not shown) [Example 145, 4-{[5-chloro-6-(tetrahydro-2H-pyran-3-ylamino)pyridin-3-yl]oxy}-2,5-difluoro-N-(methylsulfonyl)benzamide] | 810 |
| CS(=O)(=O)NC(=O)c1cc(F)c(Oc2cnc(N[C@H]3CC[C@H](F)C3)c(Cl)c2)cc1F [Example 120, 4-[(5-chloro-6-{[(1S,3S)-3-fluorocyclopentyl]amino}pyridin-3-yl)oxy]-2,5-difluoro-N-(methylsulfonyl)benzamide] | 660 |
| CC(C)COc1ncc(Oc2cc(F)c(C(=O)NS(C)(=O)=O)cc2Cl)cc1Cl [Example 38, 5-chloro-4-[(5-chloro-6-isobutoxypyridin-3-yl)oxy]-2-fluoro-N-(methylsulfonyl)benzamide] | 7.5 |

| SMILES | IC50 [nM] |
| --- | --- |
| CC(Oc1ncc(Oc2cc(F)c(C(=O)NS(C)(=O)=O)cc2Cl)cc1Cl)C(F)(F)F (stereo not shown) [Example 43, 5-chloro-4-{[5-chloro-6-(2,2,2-trifluoro-1-methylethoxy)pyridin-3-yl]oxy}-2-fluoro-N-(methylsulfonyl)benzamide] | 11 |
| CS(=O)(=O)NC(=O)c1cc(Cl)c(Oc2cnc(C3CC3)c(Cl)c2)cc1Cl [Example 91, 2,5-Dichloro-4-(5-chloro-6-cyclopropylpyridin-3-yloxy)-N-(methylsulfonyl)benzamide] | 680 |
| COc1ncc(Oc2cc(F)c(C(=O)NS(C)(=O)=O)cc2F)cc1Cl [Example 25, 4-[(5-chloro-6-methoxypyridin-3-yl)oxy]-2,5-difluoro-N-(methylsulfonyl)benzamide] | 9800 |
| CC(C)Oc1ncc(Oc2ccc(C(=O)NS(C)(=O)=O)cc2)cc1Cl [Example 84, 4-[(5-chloro-6-isopropoxypyridin-3-yl)oxy]-N-(methylsulfonyl)benzamide] | 850 |
| CC(C)N(C)c1ncc(Oc2cc(F)c(C(=O)NS(C)(=O)=O)cc2F)cc1Cl [Example 114, 4-({5-chloro-6-[isopropyl(methyl)amino]pyridin-3-yl}oxy)-2,5-difluoro-N-(methylsulfonyl)benzamide] | 210 |
| CS(=O)(=O)NC(=O)c1cc(Cl)c(Oc2cnc(N3CCC(F)(F)C3)c(Cl)c2)cc1F [Example 95, 5-chloro-4-(5-chloro-6-(3,3-difluoropyrrolidin-1-yl)pyridin-3-yloxy)-2-fluoro-N-(methylsulfonyl)benzamide] | 37 |
| CN1CCC(Oc2ncc(Oc3cc(F)c(C(=O)NS(C)(=O)=O)cc3F)cc2Cl)CC1 [Example 67, 4-({5-chloro-6-[(1-methylpiperidin-4-yl)oxy]pyridin-3-yl}oxy)-2,5-difluoro-N-(methylsulfonyl)benzamide] | 9900 |
| CS(=O)(=O)NC(=O)c1cc(Cl)c(Oc2cnc(OCC(F)(F)F)c(Cl)c2)cc1F [Example 58, 5-chloro-4-{[5-chloro-6-(2,2,2-trifluoroethoxy)pyridin-3-yl]oxy}-2-fluoro-N-(methylsulfonyl)benzamide] | 23 |
| CC(C)Oc1ncc(Oc2cc(F)c(C(=O)NS(C)(=O)=O)cc2Cl)cc1C#N [Example 8, 5-Chloro-4-[(5-cyano-6-isopropoxypyridin-3-yl)oxy]-2-fluoro-N-(methylsulfonyl)benzamide] | 240 |
| CS(=O)(=O)NC(=O)c1cc(F)c(Oc2cnc(C3CC3)c(Cl)c2)cc1F [Example 50, 4-[(5-chloro-6-cyclopropylpyridin-3-yl)oxy]-2,5-difluoro-N-(methylsulfonyl)benzamide] | 160 |
| [2H]C([2H])([2H])C([2H])(Oc1ncc(Oc2cc(F)c(C(=O)NS(C)(=O)=O)cc2F)cc1Cl)C([2H])([2H])[2H] [Example 40, -({5-chloro-6-[d7-propan-2-yloxy]pyridin-3-yl}oxy)-2,5-difluoro-N-(methylsulfonyl)benzamide] | 130 |
| CC(C)CN(C)c1ncc(Oc2cc(F)c(C(=O)NS(C)(=O)=O)cc2F)cc1Cl [Example 135, 4-({5-chloro-6-[isobutyl(methyl)amino]pyridin-3-yl}oxy)-2,5-difluoro-N-(methylsulfonyl)benzamide] | 140 |
| CS(=O)(=O)NC(=O)c1cc(F)c(Oc2cnc(NCC3CCC3)c(Cl)c2)cc1F [Example 115, 4-({5-chloro-6-[(cyclobutylmethyl)amino]pyridin-3-yl}oxy)-2,5-difluoro-N-(methylsulfonyl)benzamide] | 54 |
| CNc1ncc(Oc2cc(F)c(C(=O)NS(C)(=O)=O)cc2F)cc1Cl [Example 137, 4-{[5-chloro-6-(methylamino)pyridin-3-yl]oxy}-2,5-difluoro-N-(methylsulfonyl)benzamide] | 3200 |
| CC(C)(C)Oc1ncc(Oc2cc(F)c(C(=O)NS(C)(=O)=O)cc2F)cc1Cl [Example 34, 4-[(6-tert-butoxy-5-chloropyridin-3-yl)oxy]-2,5-difluoro-N-(methylsulfonyl)benzamide] | 33 |
| CS(=O)(=O)NC(=O)c1cc(Cl)c(Oc2cnc(C3CC3)c(OC(F)F)c2)cc1F [Example 106, 5-chloro-4-(6-cyclopropyl-5-(difluoromethoxy)pyridin-3-yloxy)-2-fluoro-N-(methylsulfonyl)benzamide] | 1100 |
| Cc1cc2ccccc2nc1Oc1cc(F)c(C(=O)NS(C)(=O)=O)cc1F [Example 196, 2,5-difluoro-4-[(3-methylquinolin-2-yl)oxy]-N-(methylsulfonyl)benzamide] | > 3000 |
| COc1cc(Oc2cnc(OC(C)C)c(Cl)c2)ccc1C(=O)NS(C)(=O)=O [Example 86, 4-[(5-chloro-6-isopropoxypyridin-3-yl)oxy]-2-methoxy-N-(methylsulfonyl)benzamide] | 7200 |
